In patent US12156915B2, “Selected artemisinin dimers for the treatment of lashmaniasis” (priority 2020, dated 2024):
Where “and” joins values, the source holds several entries; their conditions need not be identical. Identical values can stand only once. Entries after “also recorded” stand apart in the source; their conditions may differ.

Tests used:
[1] = test system: intracellular amastigote form of L. donovani parasite in differentiated THP1 cells; assay: Parasite rescue and transformation assay (macrophage internalized amastigotes); type: cell-based, Leishmania donovani; details: for selectivity index (SI): IC50 of cytotoxicity divided by IC50 in parasite rescue and transformation assay; for IC50: Leishmania donovani, THP-1, parasite rescue and transformation assay, read-out: IC50 anti-leishmanial activity, intracellular amastigote
Protocol: This assay is based on the previously published protocol by Jain et al. (35). A 3-day old culture of THP1 cells in the exponential phase was diluted with RPMI medium to 2.5×10^5 cells/ml. PMA was added to final a concentration of 25 ng/ml. PMA treated culture was dispensed in clear flat bottom culture plates and incubated overnight at 37° C. in a 5% CO2 incubator. The plates with differentiated THP1 Cells were washed with serum-free medium with the help of Molecular device AquaMax 4000. A 5-6-day old L. donovani promastigote culture diluted to 5×10^6 cells/ml was added over differentiated THP1 cells. The Macrophage cells to parasite ratio for infection was 1:10. The plates were incubated for 24 hrs. After 24 hrs., the plates were again washed with the help of AquaMax 4000 and the serum-free medium was replaced by a medium with diluted test samples. The plates were placed again in a CO2 incubator at […] for 48 hrs. After 48 hrs., the macrophage amastigote plates were washed and treated with 0.05% SDS for 30 secs., and diluted SDS medium was immediately replaced with complete RPMI medium. Plates were incubated for amastigote to promastigote transformation, and promastigote growth at […] for 48 hrs. After 48 hrs., 5 μl of alamar blue was added to each well of macrophage amastigote assay plates, and the plates were incubated further for 24 hrs. Standard fluorescence was measured on a Fluostar Galaxy fluorometer (BMG LabTechnologies) at 544 nm ex, 590 nm em. Xlfit 5.3.1 software has generated all dose response curves.

[2] = test system: L. donovani promastigotes; assay: Annexin V binding apoptosis assay (Annexin V/Propidium Iodide flow cytometry); type: cell-based, Leishmania donovani; details: for apoptotic effect on promastigotes: dimers 14 μM, artemisinin 35 μM, 24 to 72 hrs
Source text: Apoptosis, also known as programmed cell death, is a physiological process of removal of unwanted cells (37). In one of the earlier events, the process of apoptosis includes translocation of membrane phosphatidylserine from the inner side of the cell membrane to the surface (38). Annexin V is a Ca^++ dependent phospholipid-binding protein which has a high affinity for phosphatidylserine (39). So FITC-labeled Annexin V can be used for the analysis of exposed PS using a flow cytometer (40). Apoptosis analysis was done by flow cytometry using Annexin V/Propidium Iodide staining method. […] 1×10^7 promastigote cells/ml were treated with artemisinin (35 μM), dimer Morpholine (14 μM) and dimer GABA (14 μM). Aliquots were withdrawn at different time intervals and stained with FITC-Annexin V and Propidium Iodide. The cell was analyzed by flow-cytometry. […] 50,000 in a gated event were run in a FL2 (Propidium Iodide)/FL1 (Annexin FITC) and analyzed by quadrangle plot.

[3] = THP1 cytotoxicity assay (alamar blue); type: cell-based; details: human, PMA-differentiated THP1 cells, 48 hrs + 24 hrs alamar blue
Protocol: THP-1 cells (human monocytic leukemia cells) were made available by the American Type Culture Collection (ATCC) and were maintained in RPMI 1640 media (Life-Technologies) supplemented with Sodium Pyruvate, Glutamine, HEPES (Life-81 Technologies) and 10% heat-inactivated FBS (Sigma). The culture was maintained at 37° C. in 5% CO2 incubator. THP1 cells Subculture was done every 3-4 days. Promastigote forms of Leishmania donovani (S1 strain) was grown in RPMI 1640 medium at pH 7.4 supplemented with 10% fetal bovine serum. The culture was maintained at 26° C. by incubator. Subculture was done every 3-4 days.
A 3-day old culture of THP1 cells in the exponential phase was diluted with RPMI medium to 2.5×10^5 cells/ml. PMA was added to final a concentration of 25 ng/ml. PMA treated culture was dispensed in clear flat bottom culture plates and incubated overnight at 37° C. in a 5% CO2 incubator. The plates with differentiated THP1 cells were washed with serum-free medium with the help of Molecular device AquaMax 4000 and the serum-free medium was replaced by a medium with diluted test samples. The plates were placed again in a CO2 incubator at […] for 48 hrs. […] Standard fluorescence was measured on a Fluostar Galaxy fluorometer (BMG LabTechnologies) at 544 nm ex, 590 nm em. […]

[4] = test system: promastigote form of L. donovani parasite; assay: Leishmania donovani promastigote assay (alamar blue); type: cell-based; details: read-out: IC50 anti-leishmanial activity, promastigote
Protocol: THP-1 cells (human monocytic leukemia cells) were made available by the American Type Culture Collection (ATCC) and were maintained in RPMI 1640 media (Life-Technologies) supplemented with Sodium Pyruvate, Glutamine, HEPES (Life-81 Technologies) and 10% heat-inactivated FBS (Sigma). The culture was maintained at 37° C. in 5% CO2 incubator. THP1 cells Subculture was done every 3-4 days. Promastigote forms of Leishmania donovani (S1 strain) was grown in RPMI 1640 medium at pH 7.4 supplemented with 10% fetal bovine serum. The culture was maintained at 26° C. by incubator. Subculture was done every 3-4 days. The promastigote assay was based on alamar blue base growth analysis (33). A 3-4 day old promastigote culture in the exponential phase was diluted with RPMI 1640 medium, to 1×10^6 cells/ml. Artemisinin dimer samples were diluted to stock concentration of 2 mg/ml. Artemisinin dimer samples were dispensed in culture plates and diluted with a promastigote culture so the final highest concentration of samples was 10 μg/ml, and highest concentration of parent artemisinin was 40 μg/ml. The culture with the highest concentration of each artemisinin dimer was serially diluted in 1:5 ratio to 6 different concentrations. All artemisinin dimers were tested in triplicate. […] Standard fluorescence was measured on a Fluostar Galaxy fluorometer (BMG LabTechnologies) at 544 nm ex, 590 nm em. […]

| SMILES | selectivity index (SI) [1] | IC50 [1] | apoptotic effect on promastigotes [2] | IC50 at 48 h [3] | further results |
| --- | --- | --- | --- | --- | --- |
| C[C@H]1[C@@H](OCC(CO[C@H]2O[C@@H]3O[C@@]4(C)CC[C@H]5[C@H](C)CC[C@@H]([C@H]2C)[C@@]35OO4)N2CCOCC2)OC2O[C@@]3(C)CC[C@H]4[C@H](C)CC[C@@H]1[C@@]24OO3 (stereo partly drawn) [Dimer Morpholine] | > 2056 and > 2052 | 0.007 µM | time-dependent apoptotic effect |  | population in UR area of FL2/FL1 dot plot, 48 hrs compared to 24 hrs ([2]; 14 μM): significantly (P<0.0001) higher population; population in UR area of FL2/FL1 dot plot, 72 hrs compared to 24 hrs ([2]; 14 μM): significantly (P<0.0001) higher population; population in Upper Right (UR, late apoptosis) area of FL2 (PI)/FL1 (Annexin FITC) dot plot compared to control group ([2]; 14 μM, 24 hrs): significantly (P<0.0001) higher population; population in UR area of FL2/FL1 dot plot compared to control group ([2]; 14 μM, 48 hrs): significantly (P<0.0001) higher population; population in UR area of FL2/FL1 dot plot compared to control group ([2]; 14 μM, 72 hrs): significantly (P<0.0001) higher population |
| C[C@@H]1[C@H](O)[C@@H](C)/C=C/C=C/C=C/C=C/C=C/C=C/C=C/[C@H](O[C@@H]2O[C@H](C)[C@@H](O)[C@H](N)[C@@H]2O)C[C@@H]2O[C@](O)(C[C@@H](O)C[C@@H](O)[C@H](O)CC[C@@H](O)C[C@@H](O)CC(=O)O[C@H]1C)C[C@H](O)[C@H]2C(=O)O [amphotericin, amphotericin B] | 201 | 0.062 µM |  |  |  |
| C[C@H]1[C@@H](OCC(CO[C@H]2O[C@@H]3O[C@@]4(C)CC[C@H]5[C@H](C)CC[C@@H]([C@H]2C)[C@@]35OO4)NCCc2c[nH]c3ccccc23)OC2O[C@@]3(C)CC[C@H]4[C@H](C)CC[C@@H]1[C@@]24OO3 (stereo partly drawn) [dimer tryptamine] |  |  |  | 7.39 µM |  |
| C[C@@H]1CC[C@H]2[C@@H](C)C(=O)O[C@@H]3O[C@@]4(C)CC[C@@H]1[C@]32OO4 [artemisinin] |  | > 35.4 µM | does not have; also recorded: does not have leishmanicidal or apoptotic effect |  | anti-leishmanial (leishmanicidal) effect ([2]; artemisinin at 35 μM): does not have an anti-leishmanial effect; also recorded: does not have leishmanicidal or apoptotic effect; IC50 [4]: 99.2 µM |
| C[C@H]1[C@@H](OC/C(CO[C@H]2O[C@@H]3O[C@]4(C)CC[C@H]5[C@H](C)CC[C@@H]([C@H]2C)[C@@]35OO4)=N\O)O[C@@H]2OC3(C)CC[C@H]4[C@H](C)CC[C@@H]1[C@@]24OO3 [dimer oxime] |  |  |  | 11.4 µM |  |
| N=C(N)c1ccc(OCCCCCOc2ccc(C(=N)N)cc2)cc1 [pentamidine] | 63 | 0.545 µM |  |  |  |
